Measured values as given in patent US7875586B2 (priority 2002, dated 2011).
Entries after “also recorded” stand apart in the source; their conditions may differ. Peptide text beside a SMILES is read from it. * marks the point of attachment. Cbz = O=C(OCc1ccccc1)*; CH2F = FC*

How the values were obtained:
Format in all cases: cell-based, human
Caco-2 cells [1] = tested on: Caco-2 cells
T-84 cells = tested on: T-84 cells
living Caco-2 cells = tested on: living Caco-2 cells
Caco-2 cells [2] = tested on: Caco-2 cells; remark: listed apart in the source

## CCCCCCCCCCCCCCCC(=O)NC(CN1CCOCC1)C(O)c1ccccc1 (stereo not drawn) [PPMP, threo-1-phenyl-2-palmitoylamino-3-morpholino-1-propanol]
Caco-2 cells [1]
  Subpopulation of Gb3 enriched cells with filopodia on the leading edge: completely eliminated
T-84 cells
  Subpopulation of Gb3 enriched cells with filopodia on the leading edge: completely eliminated

## C[C@@H](N)[C@H]1CC[C@H](C(=O)Nc2ccncc2)CC1 [Y-27632]
Living Caco-2 cells
  Cell morphology: pronounced effects
  Filopodia and filopodia-mediated cell-cell contacts: did not change

## COC(=O)C[C@H](NC(=O)[C@H](C)NC(=O)[C@@H](NC(=O)OCc1ccccc1)C(C)C)C(=O)CF [z-VAD-fink] (Cbz-Val-Ala-Asp(OMe)-CH2F)
Caco-2 cells [2]
  Effect of caspase inhibition on DNA fragmentation caused by Stx1B: decreased DNA fragmentation; also recorded: Inhibition of apoptotic DNA fragmentation
